Values quoted from earlier work as cited in patent publication US20230067378A1, “COMPOSITIONS AND METHODS FOR THE TREATMENT OF ESTROGEN-DEPENDENT DISORDERS” (ObsEva S.A., priority 2018, published 2023).

Details: in vivo; cited from earlier work

Structure (SMILES)	half-life [h]
CONC(=O)Nc1ccc(-c2sc3c(c2CN(C)C)c(=O)n(-c2ccc(OC)nn2)c(=O)n3Cc2c(F)cccc2F)cc1 [relugolix, N-(4-(1-(2,6-difluorobenzyl)-5-((dimethylamino)methyl)-3-(6-methoxy-3-pyridazinyl)-2,4-dioxo-1,2,3,4-tetrahydrothieno[2,3-d]pyrimidin-6-yl)phenyl)-N′-methoxyurea]	37 to 42
COc1cccc(-c2c(C)n(Cc3c(F)cccc3C(F)(F)F)c(=O)n(C[C@H](NCCCC(=O)O)c3ccccc3)c2=O)c1F [Elagolix, sodium 4-({(1R)-2-[5-(2-fluoro-3-methoxyphenyl)-3-{[2-fluoro-6-(trifluoromethyl)phenyl]methyl}-4-methyl-2,6-dioxo-3,6-dihydropyrimidin-1(2H)-yl]-1-phenylethyl}amino)butanoate]	2 to 6
